# In patent US12540141B2, “Spiropyrrolidine derived antiviral agents” (priority 2020, dated 2026):
# Biological target: SARS-CoV-2 3CL-protease (Severe acute respiratory syndrome coronavirus 2, UniProt P0DTD1)
# Assay: SARS-CoV-2 3C-Like (3CL) Protease Fluorescence Assay (FRET)
# Format: biochemical
# Settings: SARS-CoV-2 3CL-protease 10 nM, 30 min preincubation at RT, substrate 40 μM
row,Compound,IC50 [nM]
1,"[2H]C([2H])([2H])N(C(=O)c1cc2c(F)cc(F)cc2[nH]1)[C@@H](CC(C)(C)F)C(=O)N1C[C@]2(C[C@H]1C#N)C(=O)Nc1cc(C(F)(F)F)ccc12 [Example 472, N—((S)-1-((3R,5′S)-5′-cyano-2-oxo-6-(trifluoromethyl)spiro[indoline-3,3′-pyrrolidin]-1′-yl)-4-fluoro-4-methyl-1-oxopentan-2-yl)-4,6-difluoro-N-(methyl-d3)-1H-indole-2-carboxamide]",< 100
2,CC(C)C[C@@H](C(=O)N1C[C@]2(C[C@H]1C#N)C(=O)Nc1ccccc12)N(C)C(=O)c1cc2cccnc2cc1OC(F)F [Example 253],< 100
3,COc1ccc(CN(C(=O)C(F)(F)F)[C@@H](CC(C)C)C(=O)N2C[C@]3(C[C@H]2C#N)C(=O)Nc2ccccc23)cc1 [Example 429],> 1000
4,CCCC[C@@H](C(=O)N1C[C@]2(C[C@H]1C#N)C(=O)Nc1ccccc12)N(C)C(=O)c1cc2c(F)cc(F)cc2[nH]1 [Example 384],< 100
5,CC(C)C[C@@H](C(=O)N1C[C@]2(C[C@H]1C#N)C(=O)Nc1ccccc12)N(C)C(=O)c1nc2ccccc2n1C [Example 282],100 to 1000
6,"Cc1ccc2c(c1)[C@@]1(C[C@@H](C#N)N(C(=O)[C@H](CC(C)C)N(C)C(=O)OCc3ccccc3)C1)C(=O)N2 [Example 518, benzyl ((S)-1-((3R,5′S)-5′-cyano-5-methyl-2-oxospiro[indoline-3,3′-pyrrolidin]-1′-yl)-4-methyl-1-oxopentan-2-yl)(methyl)carbamate]",< 100
7,CC(C)C[C@@H](O)C(=O)N(C)[C@@H](CC1CC1)C(=O)N1C[C@]2(C[C@H]1C#N)C(=O)Nc1ccccc12 [Example 424],< 100
8,CC(C)C[C@@H](C(=O)N1C[C@]2(C[C@H]1C#N)C(=O)Nc1ccccc12)N(C)C(=O)[C@@H](c1cn(C)nn1)C(C)C [Example 350],< 100
9,CC(C)C[C@@H](C(=O)N1C[C@]2(C[C@H]1C(=O)CCl)C(=O)Nc1ccccc12)N(C)C(=O)c1cc2c(F)cc(F)c(F)c2[nH]1 [Example 159],> 1000
10,CC(C)N(C(=O)OC(C)(C)C)[C@@H](Cc1ccccc1)C(=O)N1C[C@]2(C[C@H]1C#N)C(=O)Nc1ccccc12 [Example 161],> 1000
11,CCCOC[C@H](NC(=O)c1cc2c(OC)cccc2[nH]1)C(=O)N1C[C@]2(C[C@H]1C#N)C(=O)Nc1ccccc12 [Example 126],< 100
12,CC(C)C[C@@H](C(=O)N1C[C@]2(C[C@H]1C#N)C(=O)Nc1ccccc12)N(C)C(=O)c1ccc2nccc(Br)c2c1 [Example 274],< 100
13,[2H]C([2H])([2H])N(C(=O)Cc1ccncc1)[C@@H](CC(C)(C)F)C(=O)N1C[C@]2(C[C@H]1C#N)C(=O)Nc1ccc(Cl)cc12 [Example 474],< 100
14,CC(C)C[C@@H](C(=O)N1C[C@]2(C[C@H]1C#N)C(=O)Nc1ccccc12)N(C)C(=O)c1ccn(C)n1 [Example 204],100 to 1000
15,CC(C)C[C@@H](C(=O)N1C[C@]2(C[C@H]1C#N)C(=O)Nc1ccccc12)N(C)C(=O)c1ccc(Cl)c(F)c1F [Example 175],< 100
16,CC(C)C[C@@H](C(=O)N1C[C@]2(C[C@H]1C#N)C(=O)Nc1ccccc12)N(C)C(=O)c1cnc2c(C(F)(F)F)cccc2c1 [Example 268],100 to 1000
17,CN(C(=O)c1cc2cnccc2[nH]1)[C@@H](CC1CC1)C(=O)N1C[C@]2(C[C@H]1C#N)C(=O)Nc1ccc(Cl)cc12 [Example 457],< 100
18,CC(C)C[C@@H](C(=O)N1C[C@]2(C[C@H]1C#N)C(=O)Nc1ccccc12)N(C)C(=O)c1cc(Cl)cc(Cl)c1 [Example 172],< 100
19,CC(C)C[C@@H](C(=O)N1C[C@]2(C[C@H]1C#N)C(=O)Nc1ccccc12)N(C)C(=O)c1ccc2cn[nH]c2c1 [Example 223],100 to 1000

row,Compound,IC50 [nM]
1,CC(C)C[C@@H](C(=O)N1C[C@]2(C[C@H]1C#N)C(=O)Nc1ccccc12)N(C)C(=O)c1nc2c(F)cc(F)c(F)c2[nH]1 [Example 270],< 100
2,"CC(C)C[C@@H](C(=O)N1C[C@]2(C[C@H]1C#N)C(=O)Nc1ccc(S(C)(=O)=O)cc12)N(C)C(=O)c1cc2c(F)cc(F)cc2[nH]1 [Example 500, N—((S)-1-((3R,5′S)-5′-cyano-5-(methylsulfonyl)-2-oxospiro[indoline-3,3′-pyrrolidin]-1′-yl)-4-methyl-1-oxopentan-2-yl)-4,6-difluoro-N-methyl-1H-indole-2-carboxamide]",< 100
3,COc1cccc2[nH]c(C(=O)N(C)[C@@H](COC(C)(C)C)C(=O)N3C[C@]4(C[C@H]3C#N)C(=O)Nc3ccccc34)cc12 [Example 370],< 100
4,CC(C)C[C@@H](C(=O)N1C[C@]2(C[C@H]1C#N)C(=O)Nc1ccccc12)N(C)C(=O)c1cccc(OC(F)F)c1 [Example 188],< 100
5,CC(C)C[C@@H](C(=O)N1C[C@]2(C[C@H]1C#N)C(=O)Nc1ccccc12)N(C)C(=O)c1nc2ccccc2[nH]1 [Example 205],< 100
6,C#CCOC[C@H](NC(=O)c1cc2c(OC)cccc2[nH]1)C(=O)N1C[C@]2(C[C@H]1C#N)C(=O)Nc1ccccc12 [Example 127],< 100
7,CC(C)C[C@@H](C(=O)N1C[C@]2(C[C@H]1C#N)C(=O)Nc1ccccc12)N(C)C(=O)c1ccc(F)c(C(F)(F)F)c1 [Example 177],< 100
8,CC(C)C[C@@H](C(=O)N1C[C@]2(C[C@H]1C#N)C(=O)Nc1ccccc12)N(C)C(=O)c1ccc2ncccc2c1 [Example 210],< 100
9,CC(C)C[C@@H](C(=O)N1C[C@]2(C[C@H]1C#N)C(=O)Nc1ccccc12)N(C)C(=O)c1cc(OC2CC2)c2ncccc2c1 [Example 312],< 100
10,Cc1cc(C)c2ccc(C(=O)N(C)[C@@H](CC(C)C)C(=O)N3C[C@]4(C[C@H]3C#N)C(=O)Nc3ccccc34)nc2c1O [Example 259],100 to 1000
11,CC(C)C[C@@H](C(=O)N1C[C@]2(C[C@H]1C#N)C(=O)Nc1ccccc12)N(C)C(=O)c1n[nH]c(-c2ccccc2)n1 [Example 288],100 to 1000
12,CC(C)C[C@@H](C(=O)N1C[C@]2(C[C@H]1C#N)C(=O)Nc1ccc(-c3cnoc3)cc12)N(C)C(=O)c1cc2c(F)cc(F)cc2[nH]1 [Example 515],< 100
13,CN(C(=O)c1cnc(C(F)(F)F)[nH]1)[C@@H](CC1CC1)C(=O)N1C[C@]2(C[C@H]1C#N)C(=O)Nc1ccccc12 [Example 407],< 100
14,CC(C)C[C@@H](C(=O)N1C[C@]2(C[C@H]1C#N)C(=O)Nc1ccc(-c3cccnc3)cc12)N(C)C(=O)c1cc2c(F)cc(F)cc2[nH]1 [Example 506],< 100
15,"CC(C)C[C@@H](C(=O)N1C[C@]2(C[C@H]1C(=O)O)C(=O)Nc1ccc(Cl)cc12)N(C)C(=O)c1cc2c(F)cc(F)cc2[nH]1 [Example 497, (3R,5′S)-5-chloro-1′-(N-(4,6-difluoro-1H-indole-2-carbonyl)-N-methyl-L-leucyl)-2-oxospiro[indoline-3,3′-pyrrolidine]-5′-carboxylic acid]",> 1000
16,CN(C(=O)c1cc2cccnc2[nH]1)[C@@H](CC(C)(C)F)C(=O)N1C[C@]2(C[C@H]1C#N)C(=O)Nc1ccccc12 [Example 466],< 100
17,CC(C)(C)C[C@H](NC(=O)c1cn(-c2cccc(Cl)c2)nn1)C(=O)N1C[C@]2(C[C@H]1C#N)C(=O)Nc1ccccc12 [Example 142],100 to 1000
18,Cc1cccc(C(F)(F)C(=O)N(C)[C@@H](CC(C)(C)F)C(=O)N2C[C@]3(C[C@H]2C#N)C(=O)Nc2ccc(Cl)cc23)n1 [Example 486],< 100
